Measurements as given in US10729132B2, “Xylophage control using antimethanogenic reagents” (Environmental Intellectual Property, Inc, priority 2015, dated 2020).

Legend:
Archaea = test: Laboratory Study 5: methane concentration in control and test samples with AMRs
Method: Use of diallyl sulfide, which may be considered a synthetic garlic oil (GOS), was evaluated for its ability to control Archaea compared to the effects of other potential AMRs such as natural/pressed Garlic Oil (GO) and dehydrated Garlic Powder (GP). Control samples with and without contaminants were captured along with test samples that included contaminants and different concentrations (250 ppm and 500 ppm) of different AMRs (GO, GOS and GP). The concentration of methane in each of the samples was measured at 0, 9, 16 and 23 days.

[1] = system: F420-dependent NADP oxidoreductase enzyme from M. smithii; details: compared to the natural ligand F420; cited from earlier work

Compound	length and magnitude of antimethanogenic responses (Archaea; 500 ppm lasting longer than 250 ppm)	control response in terms of methane production (Archaea; after 23 days incubation, 250 ppm and 500 ppm)	affinity for the model protein [1]
C=CCSCC=C [GOS, diallyl sulfide]	concentration dependent	best control response	
CC[C@H](C)C(=O)O[C@H]1CCC=C2C=C[C@H](C)[C@H](CC[C@@H]3C[C@@H](O)CC(=O)O3)[C@H]21 [compactin]			more affinity
CC[C@H](C)C(=O)O[C@H]1C[C@@H](C)C=C2C=C[C@H](C)[C@H](CC[C@@H]3C[C@@H](O)CC(=O)O3)[C@H]21 [lovastatin]			more affinity
